{"source": "patent US20230365639A1", "about": "“DEFENSIN FRAGMENT DERIVED LIPOPEPTIDES FOR TREATMENT OF DRUG-RESISTANT MICROORGANISMS” (priority 2020, published 2023)", "key": {"S. Typhimurium": {"tested_on": "S. Typhimurium", "test": "Acute gastrointestinal infection caused by S. Typhimurium", "assay_type": "in vivo, mice", "description": "Methods: Analysis of bacterial loads in feces. Fresh fecal samples were collected and weighted. Samples were homogenized in 1 ml LB media by bead-beating with 1 mm zirconia/silica beads twice for 25 s using a Mini-Beadbeater-96 (BioSpec). To determine CFUs, dilutions of homogenized samples were plated on LB plates with 50 μg/ml kanamycin. Analysis of bacterial loads in intestinal content and systemic organs. All mice were euthanized by asphyxiation with CO2 at indicated time points. Intestinal tissues (small intestine, cecum, colon) were removed aseptically. To collect intestinal content, organs were flushed with PBS. Organs were opened longitudinally, cleaned thoroughly with PBS and weighted. Organs and content were homogenized in PBS using a Polytron homogenizer ([…]). Dilutions of homogenized samples were plated on LB plates containing 50 μg/ml kanamycin to determine CFUs. For S. Typhimurium infection experiments, age- and sex-matched mice between 10 and 14 weeks of age were used. Both-female and male mice were used in experiments. Water and food were withdrawn for 4 hours before mice were treated with 20 mg/mouse of streptomycin by oral gavage. Afterwards, mice were supplied with water and food ad libitum. 20 hours after streptomycin treatment, water and food were withdrawn again, 4 hours before the mice were orally infected with 10^5 CFU of S. Typhimurium in 200 μl PBS. […]"}, "[1]": {"tested_on": "bacteria from the ESKAPE panel", "assay_type": "cell-based", "details": "broth microdilution, 1.17-150 μM peptide, 2 hours", "description": "Methods: Broth microdilution assay. Log-phase bacteria were collected by centrifugation (2500 rpm, 10 min, 4° C.), washed twice with 10 mM sodium phosphate buffer containing 1% (w/v) TSB and the optical density at 600 nm was adjusted to 0.1. Approximately 5×10^5 CFU/ml bacteria were incubated with serial peptide concentrations (1.17-150 μM) in a final volume of 100 μl in 10 mM sodium phosphate buffer containing 1% (w/v) TSB for 2 hours at 37° C. After incubation, 100 μl of 6% TSB (w/v) was added and absorbance was measured at 600 nm (Tecan, Switzerland) and monitored for 18 hours. Afterwards, 100 μl per well was plated on LB agar to determine the number of viable bacteria microbiologically. Bactericidal activity was expressed as the LC99.9, the lowest concentration that killed ≥99.9% of bacteria."}, "[2]": {"test": "Acute tolerability after oral administration", "assay_type": "in vivo, C57BL/6N mice", "description": "Methods: C57BL/6N mice were generated and maintained (including breeding and housing) at the animal facilities of the Helmholtz Centre for Infection Research (HZI) under enhanced specific pathogen-free (SPF) conditions (Stehr et al., 2009). Animals used in the experiments were gender and age matched. Female and male mice with an age of 8-12 weeks were used. Sterilized food and water ad libitum were provided. Mice were kept under a strict 12-hour light cycle (lights on at 7:00 am and off at […]) and housed in groups of two to six mice per cage. All mice were euthanized by asphyxiation with CO2 and cervical dislocation. All animal experiments were performed in agreement with the local government of Lower Saxony, Germany (approved permission No. 33.19-42502-04-18/2499).\nAge- and gender-matched mice received two doses of peptides (0, 125 μg or 250 μg) solved in 100 μl PBS orally per day. Bodyweight and appearance were recorded. The following day, mice were sacrificed and stomach, kidney, spleen, liver, small intestine, cecum and colon were removed for histological scoring. Around 1 ml of blood was taken from the heart to measure inflammatory markers including creatinine in the kidney and the enzyme levels of glutamate-oxalacetate-transaminase (GOT) in the liver."}}}
{"substance": "Pam2-Glc-Suc-RGKAKCCK [Pam-1]", "values": [{"measurement": "CFU of S. Typhimurium in cecum content", "setting": "S. Typhimurium; 250 μg orally 6 and 22 hours post infection, vs PBS, Mann-Whitney test", "result": "significantly reduced"}, {"measurement": "CFU's in gut content and gut tissue, acute model (summary)", "setting": "S. Typhimurium; mouse, in vivo", "result": "significant CFU reduction in the acute model and this only for gut content"}, {"measurement": "bactericidal activity", "setting": "[1]", "result": "no or low bactericidal activity"}, {"measurement": "histological examination of gastrointestinal, liver and kidney tissues", "setting": "[2]; mouse, in vivo, po", "result": "no alterations"}, {"measurement": "serum level of creatinine", "setting": "[2]; mouse, in vivo, po", "result": "no significant differences between the groups"}, {"measurement": "serum level of glutamic oxaloacetic transaminase (GOT)", "setting": "[2]; mouse, in vivo, po", "result": "no significant differences between the groups"}, {"measurement": "acute toxicity (histological analysis and serum markers)", "setting": "[2]; oral, mice, 24 hours after application, 125 or 250 μg doses", "result": "did not reveal any acute toxicity"}]}
